Here are results for 16 molecules from patent US20260085067A1, “CYCLIC SULFONAMIDE RIBONUCLEOTIDE REDUCTASE (RNR) INHIBITORS AND USES THEREOF” (Boundless Bio, Inc., priority 2022, published 2026).

Where only a bound is given, the exact number is not on record here.

The test system of assay [1] is pCHK1 (S345) in Colo320 DM cells. The experiment in a line: Alphalisa assay, detection of pCHK1 (S345) in Colo320 DM cells. The assay is classed as cell-based, human. Particulars: compound overnight (approximately 16 hours). Here is the method: Colo320 DM cells (ATCC #CCL-220, derived from human colorectal adenocarcinoma, Dukes' type C) were seeded on a […], cell culture treated assay plate at a density of 50,000 cells/well in 200 μL of RPMI-1640 media supplemented with 10% Fetal Bovine Serum and incubated at 37° C. overnight. The following day, test compound dilutions were added directly to the plated cells by a Tecan digital dispenser to a final DMSO concentration of <0.5%. and incubated at 37° C. overnight (approximately 16 hours). The following day all cell culture media was removed from the cells. 75 μL of 1×AlphaLisa lysis buffer was added to each well and plates were agitated on a shaker for 30 minutes at room temperature. The lysis of cells and detection of pCHK1 (S345) were performed with reagents contained within the AlphaLisa Sure Fire assay kit (Perkin Elmer #ALSU-PCHK1-A) according to the manufacturer's instructions. 10 μL of each lysate was then transferred to a white, 384-well assay plate (Perkin Elmer #6008280). 5 μL of Acceptor mix was then added to each well of lysate in the white, 384-well assay plate and incubated in the dark at room temperature for 60 minutes. 5 μL of Donor mix was then added to each well of the white, 384-well assay plate in subdued light and incubated at room temperature for 60 minutes. Plates were read on an Alpha Technology-compatible plate reader using standard AlphaLisa settings.

The target in a further assay is T1, RNR (RNR1:RNR2 1:1) (Homo sapiens, UniProt P23921).
T1 sequence (P23921 1-792): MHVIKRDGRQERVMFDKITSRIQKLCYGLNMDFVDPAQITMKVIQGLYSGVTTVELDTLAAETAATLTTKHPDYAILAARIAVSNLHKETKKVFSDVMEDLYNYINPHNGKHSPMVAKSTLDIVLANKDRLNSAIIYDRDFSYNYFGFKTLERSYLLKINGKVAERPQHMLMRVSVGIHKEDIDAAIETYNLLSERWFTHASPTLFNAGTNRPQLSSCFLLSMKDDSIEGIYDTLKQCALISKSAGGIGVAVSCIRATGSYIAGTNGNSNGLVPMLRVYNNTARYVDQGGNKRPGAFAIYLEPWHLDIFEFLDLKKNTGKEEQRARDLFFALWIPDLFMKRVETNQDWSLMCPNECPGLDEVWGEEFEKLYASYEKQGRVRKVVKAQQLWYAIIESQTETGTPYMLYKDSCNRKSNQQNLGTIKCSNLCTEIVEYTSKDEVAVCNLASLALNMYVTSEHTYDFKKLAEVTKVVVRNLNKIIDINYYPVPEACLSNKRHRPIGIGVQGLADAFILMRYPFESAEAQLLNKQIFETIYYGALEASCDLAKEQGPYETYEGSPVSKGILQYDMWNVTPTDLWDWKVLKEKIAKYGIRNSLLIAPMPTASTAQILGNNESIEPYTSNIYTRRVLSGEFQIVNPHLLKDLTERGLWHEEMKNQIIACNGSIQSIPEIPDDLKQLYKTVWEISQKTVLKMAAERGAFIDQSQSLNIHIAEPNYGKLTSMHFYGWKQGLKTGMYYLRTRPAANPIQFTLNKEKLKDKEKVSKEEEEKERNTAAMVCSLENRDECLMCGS
The assay can be described thus: RNR enzyme activity, rapid-fire mass spectrometry (RF/MS) assay. It counts as biochemical. Particulars: [RNR] 50 nM, 1:1 RNR1:RNR2; CDP 5 μM; ATP 1 mM; 37° C., 45 min; compounds screened up to 50 μM. Here is the method:
A rapid-fire mass spectrometry (RF/MS) assay was used to assess RNR enzyme activity using a 384 well plate and a robotic platform.
The plate layout included two validated reference compounds (Triapine (3-AP) and Hydroxyurea (HU)): • A dose response in duplicate; top concentration: 5 μM (3-AP) and 250 μM (HU), semi-log dilutions. • Spike wells in triplicate randomly spotted at four concentrations: • 250 μM, 100 μM, 30 μM and 2 μM for HU • 5 μM, 2 μM, 0.6 μM and 0.04 μM for 3-AP
First, the multidrop pipes were saturated for 30 minutes with enzymatic solution. Then 30 μL of Stop solution was distributed in column 24. Next, 15 μL of enzyme was distributed in column 1 to 24. Next, a pre-incubation step of 15 minutes at room temperature occurred, followed by distribution of 15 μL of substrate solution (column 1 to 24). Next, the plate was incubated for 45 minutes at 37° C. 30 μL of Stop solution was then distributed to columns 1 to 23.
The final parameters for the enzyme reactions were: • Incubation: 37° C., 45 min • [CDP]: 5 μM; [ATP]: 1 mM; [NADPH]: No • [RNR]final: 50 nM with 1:1 (RNR1:RNR2) ratio • Final volume: 30 μL • Stop solution: 6% HCOOH in water

Usually IC50 stands for the concentration that inhibits the measured activity by half. A high value points to weaker potency.

For the molecule `Cc1ccc(F)c([C@H](C)[C@H](c2n[nH]c(=O)o2)N2CN(CC(O)CO)c3cc(Cl)ccc3S2(=O)=O)c1C` (mixture of isomers) [Example 85, 5-((1R,2S)-1-(6-chloro-4-(2,3-dihydroxypropyl)-1,1-dioxido-3,4-dihydro-2H-benzo[e][1,2,4]thiadiazin-2-yl)-2-(6-fluoro-2,3-dimethylphenyl)propyl)-1,3,4-oxadiazol-2 (3H)-one], the IC50 in assay [1] (Homo sapiens, COLO 320DM) was 1000 to 5000 nM; against RNR (RNR1:RNR2 1:1), less than 20 nM.
As to `Cc1ccc(F)c([C@@H](C)[C@@H](c2n[nH]c(=O)o2)N2CCOc3c(ccc(Cl)c3C(C)O)S2(=O)=O)c1C` (single isomer, unassigned) [Example 28], the IC50 is greater than 50000 nM in assay [1] (Homo sapiens, COLO 320DM) and 1000 to 10000 nM against RNR (RNR1:RNR2 1:1).
Consider `Cc1ccc(F)c([C@@H](C)[C@@H](c2n[nH]c(=O)o2)N2CCOc3c(ccc(Cl)c3C(C)O)S2(=O)=O)c1C` (single isomer, unassigned) [Example 29], for which the IC50 in assay [1] was greater than 50000 nM; against RNR (RNR1:RNR2 1:1), 10000 to 100000 nM.
`Cc1ccc(F)c([C@@H](C)[C@@H](c2n[nH]c(=O)o2)N2CCOc3c(ccc(Cl)c3[C@H](C)N(C)C)S2(=O)=O)c1C` (single isomer, unassigned) [Example 53]: the half-inhibitory concentration (IC50) in assay [1] (Homo sapiens, COLO 320DM) is 1000 to 5000 nM; against RNR (RNR1:RNR2 1:1), less than 20 nM.
The corresponding values for `Cc1ccc(F)c([C@@H](C)[C@@H](c2n[nH]c(=O)o2)N2CCOc3c(ccc(Cl)c3[C@@H](C)N(C)C)S2(=O)=O)c1C` (single isomer, unassigned) [Example 54] are 1000 to 5000 nM and less than 20 nM.
Regarding `Cc1ccc(F)c([C@@H](C)[C@@H](c2n[nH]c(=O)o2)N2CN(C3CCCOC3)c3cc(Cl)ccc3S2(=O)=O)c1C` (stereo in doubt) [Example 43, 5-((1S,2R)-1-(6-chloro-1,1-dioxido-4-((S)-tetrahydro-2H-pyran-3-yl)-3,4-dihydro-2H-benzo[e][1,2,4]thiadiazin-2-yl)-2-(6-fluoro-2,3-dimethylphenyl)propyl)-1,3,4-oxadiazol-2 (3H)-one], the IC50 in assay [1] (Homo sapiens, COLO 320DM) is no more than 1000 nM; on RNR (RNR1:RNR2 1:1), less than 20 nM.
For `Cc1ccc(F)c([C@@H](C)[C@@H](c2n[nH]c(=O)o2)N2CN(C3CCCOC3)c3cc(Cl)ccc3S2(=O)=O)c1C` (stereo in doubt) [Example 44, 5-((1S,2R)-1-(6-chloro-1,1-dioxido-4-((R)-tetrahydro-2H-pyran-3-yl)-3,4-dihydro-2H-benzo[e][1,2,4]thiadiazin-2-yl)-2-(6-fluoro-2,3-dimethylphenyl)propyl)-1,3,4-oxadiazol-2 (3H)-one], the IC50 in assay [1] (Homo sapiens, COLO 320DM) was no more than 1000 nM; against RNR (RNR1:RNR2 1:1) it was less than 20 nM.
For `Cc1ccc(F)c([C@@H](C)[C@@H](c2n[nH]c(=O)o2)N2CN(C(C)C)c3cc(Cl)ccc3S2(=O)=O)c1C` [Example 4, 5-((1S,2R)-1-(6-chloro-4-isopropyl-1,1-dioxido-3,4-dihydro-2H-benzo[e][1,2,4]thiadiazin-2-yl)-2-(6-fluoro-2,3-dimethylphenyl)propyl)-1,3,4-oxadiazol-2 (3H)-one], the IC50 in assay [1] (Homo sapiens, COLO 320DM) fell in the range of 1000 to 5000 nM; against RNR (RNR1:RNR2 1:1), 100 to 1000 nM.
In the same order, the values of `Cc1ccc(F)c([C@@H](C)[C@@H](c2n[nH]c(=O)o2)N2CN(C)c3cc(Cl)cnc3S2(=O)=O)c1C` [Example 5, 5-((1S,2R)-1-(6-chloro-4-methyl-1,1-dioxido-3,4-dihydro-2H-pyrido[3,2-e][1,2,4]thiadiazin-2-yl)-2-(6-fluoro-2,3-dimethylphenyl)propyl)-1,3,4-oxadiazol-2 (3H)-one] are 1000 to 5000 nM and 20 to 100 nM.
As to `Cc1ccc(F)c([C@@H](C)[C@@H](c2n[nH]c(=O)o2)N2CN(C3CC3)c3cc(Cl)ccc3S2(=O)=O)c1C` [Example 6, 5-((1S,2R)-1-(6-chloro-4-cyclopropyl-1,1-dioxido-3,4-dihydro-2H-benzo[e][1,2,4]thiadiazin-2-yl)-2-(6-fluoro-2,3-dimethylphenyl)propyl)-1,3,4-oxadiazol-2 (3H)-one], the IC50 in assay [1] (Homo sapiens, COLO 320DM) is no more than 1000 nM; against RNR (RNR1:RNR2 1:1) it was 20 to 100 nM.
In the same order, the values of `Cc1ccc(F)c([C@@H](C)[C@@H](c2n[nH]c(=O)o2)N2COc3cc(Cl)ccc3S2(=O)=O)c1C` [Example 7, 5-((1S,2R)-1-(6-chloro-1,1-dioxidobenzo[e][1,4,3]oxathiazin-2 (3H)-yl)-2-(6-fluoro-2,3-dimethylphenyl)propyl)-1,3,4-oxadiazol-2 (3H)-one] are no more than 1000 nM and 20 to 100 nM.
In the case of `[2H]C([2H])([2H])N1CN([C@H](c2n[nH]c(=O)o2)[C@H](C)c2c(F)ccc(C)c2C)S(=O)(=O)c2ccc(Cl)cc21` [Example 9, 5-((1S,2R)-1-(6-chloro-4-(methyl-d3)-1,1-dioxido-3,4-dihydro-2H-benzo[e][1,2,4]thiadiazin-2-yl)-2-(6-fluoro-2,3-dimethylphenyl)propyl)-1,3,4-oxadiazol-2 (3H)-one], the IC50 in assay [1] (Homo sapiens, COLO 320DM) is no more than 1000 nM; against RNR (RNR1:RNR2 1:1), 20 to 100 nM.
For the molecule `CCCN1CN([C@H](c2n[nH]c(=O)o2)[C@H](C)c2c(F)ccc(C)c2C)S(=O)(=O)c2ccc(Cl)cc21` [Example 10, 5-((1S,2R)-1-(6-chloro-1,1-dioxido-4-propyl-3,4-dihydro-2H-benzo[e][1,2,4]thiadiazin-2-yl)-2-(6-fluoro-2,3-dimethylphenyl)propyl)-1,3,4-oxadiazol-2 (3H)-one], the IC50 in assay [1] (Homo sapiens, COLO 320DM) was no more than 1000 nM; against RNR (RNR1:RNR2 1:1) it was less than 20 nM.
The corresponding values for `Cc1cc2c(cc1Cl)N(C)CN([C@H](c1n[nH]c(=O)o1)[C@H](C)c1c(F)ccc(C)c1C)S2(=O)=O` [Example 12, 5-((1S,2R)-1-(6-chloro-4,7-dimethyl-1,1-dioxido-3,4-dihydro-2H-benzo[e][1,2,4]thiadiazin-2-yl)-2-(6-fluoro-2,3-dimethylphenyl)propyl)-1,3,4-oxadiazol-2 (3H)-one] are 5000 to 10000 nM and 20 to 100 nM.
For `Cc1ccc(F)c([C@@H](C)[C@@H](c2n[nH]c(=O)o2)N2CCN(C)c3cc(Cl)ccc3S2(=O)=O)c1C` [Example 13, 5-((1S,2R)-1-(7-chloro-5-methyl-1,1-dioxido-4,5-dihydrobenzo[f][1,2,5]thiadiazepin-2 (3H)-yl)-2-(6-fluoro-2,3-dimethylphenyl)propyl)-1,3,4-oxadiazol-2 (3H)-one], the IC50 in assay [1] (Homo sapiens, COLO 320DM) fell in the range of 1000 to 5000 nM; on RNR (RNR1:RNR2 1:1) it was 20 to 100 nM.
Consider `Cc1ccc(F)c([C@@H](C)[C@@H](c2n[nH]c(=O)o2)N2CC(=O)N(C)c3cc(Cl)ccc3S2(=O)=O)c1C` [Example 14, 5-((1S,2R)-1-(7-chloro-5-methyl-1,1-dioxido-4-oxo-4,5-dihydrobenzo[f][1,2,5]thiadiazepin-2 (3H)-yl)-2-(6-fluoro-2,3-dimethylphenyl)propyl)-1,3,4-oxadiazol-2 (3H)-one], for which the IC50 in assay [1] (Homo sapiens, COLO 320DM) fell in the range of 1000 to 5000 nM; against RNR (RNR1:RNR2 1:1), 20 to 100 nM.
